Measurements reported in ChEMBL document CHEMBL1146094, “Screening for cardiovascular safety: a structure-activity approach for guiding lead selection of melanin concentrating hormone receptor 1 antagonists” (J Med Chem, 2006).
pIC50: −log10 of the molar value.

Experiments:
Rattus norvegicus [1] = assay: End-of-study drug concentration in inactin-anesthetized Sprague-Dawley rat plasma; format: functional
IMR-32 [2] = assay: Inhibition of MCH-mediated calcium release in whole IMR32 cells by FLIPR assay; format: functional, cell-based; details: Homo sapiens
[3] = AUC in DIO mice plasma at 10 mg/kg, po; format: ADME, organism-based; parameters: dose 10 mg/kg, route oral; details: mouse
Mus musculus = assay: AUC in DIO mice brain at 10 mg/kg, po; format: ADME, organism-based; parameters: dose 10 mg/kg, route oral; details: in vivo
Rattus norvegicus [4] = assay: End-of-study drug concentration in inactin-anesthetized Sprague-Dawley rat brain; format: functional
[5] = target: Melanin-concentrating hormone receptor 1 (Homo sapiens, UniProt Q99705); assay: Displacement of [125I]MCH from MCHr1 expressed in IMR32 (I3.4.2) cells; format: cell-based
Sequence of Melanin-concentrating hormone receptor 1 (Q99705 whole entry): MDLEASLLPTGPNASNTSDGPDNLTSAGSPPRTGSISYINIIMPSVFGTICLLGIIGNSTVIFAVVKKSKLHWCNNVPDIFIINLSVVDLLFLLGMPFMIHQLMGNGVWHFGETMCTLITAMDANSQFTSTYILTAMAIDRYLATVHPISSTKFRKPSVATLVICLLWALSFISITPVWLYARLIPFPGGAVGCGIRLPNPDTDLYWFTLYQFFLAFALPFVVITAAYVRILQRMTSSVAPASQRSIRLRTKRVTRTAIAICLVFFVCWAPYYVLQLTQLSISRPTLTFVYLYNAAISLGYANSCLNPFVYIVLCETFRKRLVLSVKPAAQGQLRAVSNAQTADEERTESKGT

IMR-32 [6] = assay: Inhibition of MCH-mediated calcium release in whole IMR32 cells at 10 uM by FLIPR assay; format: functional; details: Homo sapiens

Row | pIC50 (IMR-32 [2]) | AUC [3] [ng·h/mL] | AUC (Mus musculus) [µg·h/g] | pIC50 [5] | Compound | Activity (Rattus norvegicus [1]) [µM] | Activity (Rattus norvegicus [4]) [µg/g] | inhibition at 10 µM (IMR-32 [6]) [%]
1 | 7.15 | – | – | – | O=C(Cc1ccc(OCc2ccccc2)cc1)Nc1cccc2c1cnn2CCN1CCCC1 | 4 | – | –
2 | 7.14 | 18700 | 4.4 | 8.22 | COc1ccc2c(=O)cc(C(=O)NC3CCN(Cc4ccc5c(c4)OCO5)CC3)oc2c1 | 66 | 158 | –
3 | < 5.00 | – | – | 5.44 | COc1ccc(CC(=O)Nc2ccc3cnn(CCN4CCCC4)c3c2)cc1 | 39 | 6 | 14
4 | 6.42 | – | – | 7.80 | Clc1ccc2[nH]nc(NC3CCN(Cc4ccc5c(c4)OCO5)CC3)c2c1 | 22 | 30 | –
5 | 6.50 | – | – | 7.34 | O=C(Nc1ccc(Oc2ccccc2)cc1)Nc1ccc2nn(CCN3CCCC3)cc2c1 | 558 | 6 | –
6 | 6.67 | 1020 | 0 | 7.24 | O=C(Nc1ccc(Oc2ccccc2)cc1)Nc1ccc2nn(CCN3CC[C@H](O)C3)cc2c1 | 201 | 3 | –
7 | 7.60 | – | – | – | CC(C)OCCNc1ncc(Cl)cc1C(=O)NC1CCN(Cc2ccc3c(c2)OCO3)CC1 | 44 | 88 | –
8 | 6.87 | – | – | 8.30 | O=C(Nc1ccc(Oc2ccccc2)cc1)Nc1ccc2c(cnn2CCN2CCCCC2)c1 | 77 | 13 | –
9 | – | – | – | – | CC(C)OCCNc1ncc(Cl)cc1C(=O)NC1CCCN(Cc2ccc3c(c2)OCO3)C1 (configuration not stated) | 61 | 138 | 30
10 | 6.99 | – | – | 8.40 | O=C(Nc1ccc(Oc2ccccc2)cc1)Nc1ccc2c(cnn2CCN2CCCCCC2)c1 | – | – | –
11 | – | – | – | – | O=C(Nc1ccc(Oc2ccccc2)cc1)Nc1ccc2c(cnn2CCN2CCCC2)c1 | 88 | 10 | –
12 | 7.28 | – | – | – | O=C(NC1CCN(Cc2ccc3c(c2)OCO3)CC1)c1cc(Cl)ccc1NCc1nccs1 | 91 | – | –
13 | 7.13 | – | – | 8.00 | COc1ccc2nccc(NC3CCN(Cc4ccc5c(c4)OCO5)CC3)c2c1 | – | – | –
14 | 6.51 | – | – | 7.11 | O=C(Cc1ccc(Oc2ccccc2)cc1)Nc1ccc2c(cnn2CCN2CCCC2)c1 | 2 | – | –
15 | 7.96 | – | – | – | O=C(Cc1ccc(OCc2ccccc2)cc1)Nc1ccc2cnn(CCN3CCCC3)c2c1 | 23 | 10 | –
16 | 7.08 | – | – | 8.52 | O=C(NC1CCN(Cc2ccc3c(c2)OCO3)CC1)c1cc(=O)c2cc(Cl)c(Cl)cc2o1 | 42 | 63 | –
17 | – | – | – | – | O=C(Cc1ccc(OCc2ccccc2)cc1)Nc1ccc2c(cnn2CCN2CCCC2)c1 | 53 | 46 | 14
18 | 7.96 | – | – | 8.70 | COc1ccc2oc(O)c/c(=N\C3CCN(Cc4ccc5c(c4)OCO5)CC3)c2c1 | 272 | 71 | –
